16 compounds from ChEMBL document CHEMBL3734724, “Anticancer efficacy of unique pyridine-based tetraindoles” (Eur J Med Chem, 2015) can be followed below.

The test system of one data set is 4T1. The data set can be described thus: Antitumor activity against luciferase-expressing mouse 4T1 cells allografted in athymic nude BALB/c mouse assessed as tumor growth inhibition at 12.5 mg/kg/week ip administered on first 3 days in first week followed by two shots on day 1 and day 4 at 6.25 mg/kg/week for another 3 weeks measured every other day until day 28 relative to vehicle-treated control. It counts as functional.

Data set [1] is described as follows: Cytotoxicity against human Hs578T cells assessed as growth inhibition after 48 hrs by MTT assay. In kind it is functional, cell-based. The conditions noted are these: Hs-578T. (In general: Tetrazolium assays rely on reduction of a dye to a coloured formazan, in cell work by metabolically active cells.)
Data set [2] relates to MCF7. The data set can be described thus: Cytotoxicity against human MCF7 cells assessed as growth inhibition at 20 uM after 48 hrs by MTT assay relative to control. As to conditions: MCF7, 48 h, read-out: GI. In kind it is functional.
Data set [3] in a line: Cytotoxicity against human M10 cells assessed as growth inhibition at 20 uM after 48 hrs by MTT assay relative to control. As to conditions: read-out: GI. It counts as cell-based.
Data set [4] in a line: Cytotoxicity against human M10 cells assessed as growth inhibition after 48 hrs by MTT assay. It counts as cell-based. The conditions noted are these: M10, 48 h.
Data set [5] relates to MDA-MB-231. The data set can be described thus: Cytotoxicity against human MDA-MB-231 cells assessed as growth inhibition at 20 uM after 48 hrs by MTT assay relative to control. It counts as functional. The conditions noted are these: MDA-MB-231, 48 h, read-out: GI.
Data set [6] has as its system MCF7. The data set can be described thus: Cytotoxicity against human MCF7 cells assessed as growth inhibition after 48 hrs by MTT assay. The conditions noted are these: MCF7, 48 h. It counts as functional, cell-based.
Data set [7] has as its system MDA-MB-231. Briefly: Cytotoxicity against human MDA-MB-231 cells assessed as growth inhibition after 48 hrs by MTT assay. It counts as functional, cell-based. As to conditions: MDA-MB-231, 48 h.
A short description of data set [8]: Cytotoxicity against human BT549 cells assessed as growth inhibition after 48 hrs by MTT assay. The conditions noted are these: BT-549, 48 h. It counts as functional, cell-based.
Data set [9] can be described thus: Cytotoxicity against human Hs578T cells assessed as growth inhibition at 20 uM after 48 hrs by MTT assay relative to control. It counts as functional. The conditions noted are these: Hs-578T, read-out: GI.
Data set [10] in a line: Cytotoxicity against human BT549 cells assessed as growth inhibition at 20 uM after 48 hrs by MTT assay relative to control. In kind it is functional. As to conditions: BT-549, 48 h, read-out: GI.

Regarding `Oc1ccc2[nH]cc(C(c3ccc(C(c4c[nH]c5ccc(O)cc45)c4c[nH]c5ccc(O)cc45)cc3)c3c[nH]c4ccc(O)cc34)c2c1`, the TGI (in general, how far tumour growth fell short of that in controls) in the data set with 4T1 amounted to 16%.

Turning to `c1ccc2c(C(c3ccc(C(c4c[nH]c5ccccc45)c4c[nH]c5ccccc45)nc3)c3c[nH]c4ccccc34)c[nH]c2c1`, the IC50 – broadly, the concentration needed to halve the response being measured – in data set [1] is 9 µM; in data set [4], greater than 20 µM; in the data set with MCF7 [6], greater than 20 µM; with MDA-MB-231 [7] it was greater than 20 µM; in data set [8], 15 µM. The inhibition of growth at 20 µM in the data set with MCF7 [2] was 21%; in the data set on MDA-MB-231 [5], 4%. The inhibition at 48 h, 20 µM in [3] is 26%.

For the compound `COc1ccc2[nH]cc(C(c3cccc(C(c4c[nH]c5ccc(OC)cc45)c4c[nH]c5ccc(OC)cc45)n3)c3c[nH]c4ccc(OC)cc34)c2c1`, the IC50 in data set [1] is greater than 20 µM; in data set [4], greater than 20 µM; with MCF7 [6], greater than 20 µM; in the data set on MDA-MB-231 [7], greater than 20 µM; in [8], 14 µM. Further, the inhibition of growth at 20 µM is 9% in the data set on MCF7 [2], 18% in [9] and 0% in the data set with MDA-MB-231 [5]. Moreover, the inhibition at 48 h, 20 µM in data set [3] was 0%.

In the case of `c1cc(C(c2c[nH]c3ccccc23)c2c[nH]c3ccccc23)nc(C(c2c[nH]c3ccccc23)c2c[nH]c3ccccc23)c1`, the IC50 (in data set [1]; in data set [4]; with MCF7 [6]; with MDA-MB-231 [7]; in data set [8]) was greater than 20 µM each time. In addition, the inhibition of growth at 20 µM in the data set on MCF7 [2] turned out to be 47%; in [9] it was 8%; with MDA-MB-231 [5], 29%; in [10] it was 22%. For the same compound, in data set [3], the inhibition at 48 h, 20 µM was found to be 32%.

As for `N#Cc1ccc2[nH]cc(C(c3cccc(C(c4c[nH]c5ccc(C#N)cc45)c4c[nH]c5ccc(C#N)cc45)n3)c3c[nH]c4ccc(C#N)cc34)c2c1`, the half-inhibitory concentration (IC50) in data set [1] was greater than 20 µM; in [4] it was greater than 20 µM; with MCF7 [6] it was greater than 20 µM; in the data set on MDA-MB-231 [7], greater than 20 µM; in [8], 13 µM. Further, the inhibition of growth at 20 µM stood at 13% in the data set with MCF7 [2], 22% in data set [9] and 0% in the data set on MDA-MB-231 [5]. In addition, the inhibition at 48 h, 20 µM in data set [3] came to 0%.

`Oc1ccc2[nH]cc(C(c3cccc(C(c4c[nH]c5ccc(O)cc45)c4c[nH]c5ccc(O)cc45)n3)c3c[nH]c4ccc(O)cc34)c2c1`: the IC50 is greater than 20 µM in data set [1]; greater than 20 µM in data set [4]; greater than 20 µM in the data set with MCF7 [6]; 10.3 µM in the data set on MDA-MB-231 [7]; greater than 20 µM in data set [8]. Further, the inhibition of growth at 20 µM in the data set on MCF7 [2] was found to be 11%; in data set [9], 2%; in [10], 10%. For the same compound, in data set [3], the inhibition at 48 h, 20 µM came out at 9%.

Regarding `Fc1ccc2[nH]cc(C(c3ccc(C(c4c[nH]c5ccc(F)cc45)c4c[nH]c5ccc(F)cc45)nc3)c3c[nH]c4ccc(F)cc34)c2c1`, the IC50 in [1] came to 17 µM; in data set [4], 19 µM; in the data set with MCF7 [6], 14 µM; in the data set on MDA-MB-231 [7], 8.6 µM; in data set [8], 13.1 µM.

Consider `c1ccc(COc2ccc3[nH]cc(C(c4cccc(C(c5c[nH]c6ccc(OCc7ccccc7)cc56)c5c[nH]c6ccc(OCc7ccccc7)cc56)n4)c4c[nH]c5ccc(OCc6ccccc6)cc45)c3c2)cc1`, for which the IC50 (in data set [1]; in data set [4]; in the data set with MCF7 [6]; in the data set with MDA-MB-231 [7]; in data set [8]) was greater than 20 µM in each case. In addition, the inhibition of growth at 20 µM is 0% with MCF7 [2], 0% in data set [9], 0% in the data set with MDA-MB-231 [5] and 40% in data set [10]. The inhibition at 48 h, 20 µM in data set [3] is 30%.

With `Fc1ccc2[nH]cc(C(c3cccc(C(c4c[nH]c5ccc(F)cc45)c4c[nH]c5ccc(F)cc45)n3)c3c[nH]c4ccc(F)cc34)c2c1`, the IC50 is 8.9 µM in data set [1]; 12 µM in data set [4]; 20 µM in the data set on MCF7 [6]; 9.6 µM in the data set with MDA-MB-231 [7]; 9.7 µM in [8].

In the case of `Clc1ccc2[nH]cc(C(c3ccc(C(c4c[nH]c5ccc(Cl)cc45)c4c[nH]c5ccc(Cl)cc45)nc3)c3c[nH]c4ccc(Cl)cc34)c2c1`, the concentration for half-maximal inhibition (IC50) (in data set [1]; in data set [4]; with MCF7 [6]; in the data set with MDA-MB-231 [7]; in data set [8]) was greater than 20 µM in each case. Moreover, the inhibition of growth at 20 µM in the data set with MCF7 [2] was 11%; in data set [9], 0%; with MDA-MB-231 [5], 9%; in data set [10], 23%. Moreover, the inhibition at 48 h, 20 µM in data set [3] was found to be 25%.

With `Brc1ccc2[nH]cc(C(c3cccc(C(c4c[nH]c5ccc(Br)cc45)c4c[nH]c5ccc(Br)cc45)n3)c3c[nH]c4ccc(Br)cc34)c2c1`, the IC50 (in data set [1]; in data set [4]; in the data set on MCF7 [6]; in the data set on MDA-MB-231 [7]; in [8]) was greater than 20 µM each time. The inhibition of growth at 20 µM came out at 0% in the data set with MCF7 [2], 0% in [9], 13% in the data set on MDA-MB-231 [5] and 15% in [10]. The inhibition at 48 h, 20 µM in data set [3] was 0%.

Take `Clc1ccc2[nH]cc(C(c3cccc(C(c4c[nH]c5ccc(Cl)cc45)c4c[nH]c5ccc(Cl)cc45)n3)c3c[nH]c4ccc(Cl)cc34)c2c1`: the IC50 in data set [1] is greater than 20 µM; in data set [4], greater than 20 µM; in the data set with MCF7 [6] it was greater than 20 µM; with MDA-MB-231 [7], greater than 20 µM; in data set [8], 6 µM. Besides, the inhibition of growth at 20 µM with MCF7 [2] stood at 20%; in [9], 5%; with MDA-MB-231 [5] it was 0%. In data set [3], the inhibition at 48 h, 20 µM came to 28%.

As for `Oc1ccc2c(C(c3ccc(C(c4c[nH]c5cc(O)ccc45)c4c[nH]c5cc(O)ccc45)nc3)c3c[nH]c4cc(O)ccc34)c[nH]c2c1`, the IC50 in [1] is greater than 20 µM; in data set [4] it was greater than 20 µM; with MCF7 [6], greater than 20 µM; in the data set on MDA-MB-231 [7], 14 µM; in [8], greater than 20 µM. Besides, the results for the inhibition of growth at 20 µM (in the data set with MCF7 [2]; in data set [9]; in [10]) were 0%, 0% and 19%, respectively. For the same compound, the inhibition at 48 h, 20 µM in [3] came to 0%.

As for `Brc1ccc2[nH]cc(C(c3ccc(C(c4c[nH]c5ccc(Br)cc45)c4c[nH]c5ccc(Br)cc45)nc3)c3c[nH]c4ccc(Br)cc34)c2c1`, the IC50 was greater than 20 µM in [1]; greater than 20 µM in data set [4]; greater than 20 µM with MCF7 [6]; greater than 20 µM in the data set with MDA-MB-231 [7]; 10 µM in [8]. Besides, the inhibition of growth at 20 µM in the data set with MCF7 [2] came out at 0%; in data set [9], 0%; in the data set with MDA-MB-231 [5], 15%. The inhibition at 48 h, 20 µM in [3] turned out to be 0%.

In the case of `COc1ccc2[nH]cc(C(c3ccc(C(c4c[nH]c5ccc(OC)cc45)c4c[nH]c5ccc(OC)cc45)nc3)c3c[nH]c4ccc(OC)cc34)c2c1`, the IC50 (in data set [1]; in data set [4]; in the data set on MCF7 [6]; in the data set on MDA-MB-231 [7]; in data set [8]) was greater than 20 µM throughout. Moreover, the inhibition of growth at 20 µM came to 29% with MCF7 [2], 21% in data set [9], 11% in the data set on MDA-MB-231 [5] and 48% in data set [10]. Moreover, the inhibition at 48 h, 20 µM in [3] was 0%.

On to `N#Cc1ccc2[nH]cc(C(c3ccc(C(c4c[nH]c5ccc(C#N)cc45)c4c[nH]c5ccc(C#N)cc45)nc3)c3c[nH]c4ccc(C#N)cc34)c2c1`, for which the IC50 (in data set [1]; in data set [4]; in the data set on MCF7 [6]; with MDA-MB-231 [7]; in data set [8]) was greater than 20 µM throughout. Also, the inhibition of growth at 20 µM in the data set with MCF7 [2] worked out at 0%; in data set [9], 22%; in the data set with MDA-MB-231 [5], 0%; in data set [10], 28%. In [3], the inhibition at 48 h, 20 µM is 0%.
